Values of other authors as cited in patent US20060006323A1, “Method and an apparatus for evaluating toxicity of chemical agents” (priority 2004, published 2006).

Legend:
[1] = toxicity intensity relative to 2,3,7,8-TCDD set to be 1; cited from earlier work
[2] = reported toxicity; cited from earlier work
AhR = target: T1, AhR (Homo sapiens, UniProt P35869); conditions: published by Matsui et al. 2002, HPLC bioassay; cited from earlier work
T1 sequence (P35869 11-848): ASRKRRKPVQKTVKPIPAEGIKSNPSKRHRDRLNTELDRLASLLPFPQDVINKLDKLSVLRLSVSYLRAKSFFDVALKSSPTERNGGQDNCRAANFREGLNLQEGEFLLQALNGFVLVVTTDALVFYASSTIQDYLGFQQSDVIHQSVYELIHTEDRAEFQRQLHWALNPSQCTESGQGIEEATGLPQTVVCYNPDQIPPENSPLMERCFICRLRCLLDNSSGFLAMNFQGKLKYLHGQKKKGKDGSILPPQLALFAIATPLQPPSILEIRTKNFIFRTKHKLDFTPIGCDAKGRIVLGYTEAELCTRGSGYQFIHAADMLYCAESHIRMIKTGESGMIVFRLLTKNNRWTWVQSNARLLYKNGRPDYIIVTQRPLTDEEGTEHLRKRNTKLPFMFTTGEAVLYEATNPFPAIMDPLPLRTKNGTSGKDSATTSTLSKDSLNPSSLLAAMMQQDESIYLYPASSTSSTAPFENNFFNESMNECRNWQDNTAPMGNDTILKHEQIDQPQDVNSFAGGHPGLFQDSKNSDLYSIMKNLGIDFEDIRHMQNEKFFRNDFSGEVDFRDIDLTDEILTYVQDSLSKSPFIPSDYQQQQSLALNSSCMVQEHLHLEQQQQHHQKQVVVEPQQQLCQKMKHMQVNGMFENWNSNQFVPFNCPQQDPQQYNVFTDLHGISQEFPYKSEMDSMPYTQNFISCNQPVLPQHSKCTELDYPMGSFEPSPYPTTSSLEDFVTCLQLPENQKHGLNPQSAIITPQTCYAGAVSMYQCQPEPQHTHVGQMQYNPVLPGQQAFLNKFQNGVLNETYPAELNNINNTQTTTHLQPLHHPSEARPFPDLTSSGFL

Compound | WHO-TEF [1] | toxicity [2] | affinity with AhR (AhR)
Clc1cc2c(c(Cl)c1Cl)Oc1c(cc(Cl)c(Cl)c1Cl)O2 [1,2,3,7,8,9-HxCDD] | 0.1 | – | –
Clc1cc2c(c(Cl)c1Cl)Oc1cc(Cl)c(Cl)c(Cl)c1O2 [1,2,3,6,7,8-HxCDD] | 0.1 | – | –
Clc1c(Cl)c(Cl)c2c(c1Cl)Oc1c(Cl)c(Cl)c(Cl)c(Cl)c1O2 [OCDD] | 0.0001 | – | –
Clc1cc2c(cc1Cl)Oc1cc(Cl)c(Cl)cc1O2 [2,3,7,8-TCDD] | 1 | – | –
Clc1cc2c(cc1Cl)Oc1c(cc(Cl)c(Cl)c1Cl)O2 [1,2,3,7,8-PeCDD] | 1 | – | –
Clc1c(Cl)c(Cl)c2c(c1Cl)Oc1ccccc1O2 [1,2,3,4-TCDD] | – | without any reported toxicity | –
O=C1/C(=C2\Nc3ccccc3C2=O)Nc2ccccc21 [indigo] | – | comparatively low | strong affinity
Clc1cc2c(cc1Cl)Oc1c(Cl)c(Cl)c(Cl)c(Cl)c1O2 [1,2,3,4,7,8-HxCDD] | 0.1 | – | –
